US8399440B2, “Disease modifying anti-arthritic activity of 2-methoxyestradiol” (EntreMed, Inc., priority 2006, dated 2013)

Tests used:
[1] = target: estrogen receptor β (Homo sapiens, UniProt Q92731); conditions: LaVallee et al. 2002; cited from earlier work
[2] = tested on: endothelial cell; assay: Endothelial cell proliferation in vitro
[3] = tested on: Arthrogen Collagen MAb-Induced Arthritis; assay: Arthrogen collagen MAb-induced arthritis (Arthrogen-CIA model of RA); type: in vivo, Mouse (Balb/C)
[4] = tested on: PMNL migration to arthritic joints; assay: 51Cr-labeled PMNL migration to arthritic joints; type: in vivo, Rat (Lewis)
From the text: Rat blood PMNL were isolated from a donor arthritic rat by hydroxyethyl starch (Hespan; Dupont Merck, Wilmington, Del.) exchange transfusion performed through a needle inserted in a femoral vein. The exchanged blood was collected into heparin and acid-citrate-dextrose (ACD, formula A; Fenwal-Travenol, Malton, ON) and the leukocyte-rich plasma was harvested during 1 g sedimentation of red blood cells. The PMNL were then isolated by centrifugation on discontinuous Percoll density gradients of 63% Percoll above 74% Percoll with 10% autologous plasma and calcium and magnesium-free Tyrode's solution (TyS^−/−) for the balance of the suspending medium. After centrifugation (350×g, 30 min at 22° C.) the purified PMNL (>95%) were harvested from the layer above the 74% plasma-Percoll cushion and after washing with TyS^−/−−10% plasma, the cells were radiolabeled with 75 μCi/5×10^7 cells of Na2^51CrO4 (GE Healthcare Bio-Sciences Inc., Baie d'Urfé, QC). After the cells were washed, they were injected i.v. into rats at a dose of 10^7 51Cr-labeled PMNL per animal bearing approximately 1-2×10^5 cpm. These cells were allowed to circulate and migrate for 2 h prior to sacrifice of the rats.
At the time the rats were killed, cardiac blood was obtained to measure the blood leukocyte count and the leukocyte and plasma associated radioactivity. Joints were dissected and segments of limbs sectioned to include carpal, metacarpal, talar and metatarsal joints for analysis as previously reported (Issekutz et al. Lab Invest. (1991), 64:656-63 and Issekutz et al. Arthritis Rheum. (2001), 44:1428-37). The content of ^51Cr in the joints, as well as in dermal skin sites and internal organs, was determined with a Wallac LKB 1280 gamma counter (Fisher Scientific, Nepean, ON). Accumulated isotope in the tissue was expressed as cpm/10^6 cpm injected i.v.

[5] = tested on: PMNL migration to dermal inflammatory reactions; assay: 51Cr-labeled PMNL migration to dermal inflammatory reactions; type: in vivo, Rat (Lewis)
From the text: Rat blood PMNL were isolated from a donor arthritic rat by hydroxyethyl starch (Hespan; Dupont Merck, Wilmington, Del.) exchange transfusion performed through a needle inserted in a femoral vein. The exchanged blood was collected into heparin and acid-citrate-dextrose (ACD, formula A; Fenwal-Travenol, Malton, ON) and the leukocyte-rich plasma was harvested during 1 g sedimentation of red blood cells. The PMNL were then isolated by centrifugation on discontinuous Percoll density gradients of 63% Percoll above 74% Percoll with 10% autologous plasma and calcium and magnesium-free Tyrode's solution (TyS^-/-) for the balance of the suspending medium. […] After the cells were washed, they were injected i.v. into rats at a dose of 10^7 51Cr-labeled PMNL per animal bearing approximately 1-2×10^5 cpm. These cells were allowed to circulate and migrate for 2 h prior to sacrifice of the rats. […] List Biologicals, Campbell, Calif.) or zymosan-activated serum (rat) as a source of […].^22 2 h before sacrifice, administered in the doses indicated at the same time as the i.v. injection of radiolabeled PMNL. The accumulation of PMNL in these sites was quantified by biopsy of the injection sites using a 12-mm punch biopsy taken following sacrifice of the animals. At the time the rats were killed, cardiac blood was obtained to measure the blood leukocyte count and the leukocyte and plasma associated radioactivity. Joints were dissected and segments of limbs sectioned to include carpal, metacarpal, […] metatarsal joints for analysis as previously reported (Issekutz et al. Lab Invest. (1991), 64:656-63 and Issekutz et al. Arthritis Rheum. (2001), 44:1428-37). The content of ^51Cr in the joints, as well as in dermal skin sites and internal organs, was determined with a Wallac LKB 1280 gamma counter (Fisher Scientific, Nepean, ON). Accumulated isotope in the tissue was expressed as cpm/10^6 cpm injected i.v. In the same rats, the migration of PMNL to dermal inflammatory reactions was measured, these reactions being initiated at the time of radiolabeled PMNL injection. Thus the migration quantitated the acute reaction during the first two hours of the lesions.

[6] = tested on: lymph node cells from rats with AA; assay: Lymph node cell proliferation in vitro (3H-thymidine incorporation)
Experimental: (§1) Because of the effect of 2ME2 treatment on arthritis severity and the response in the spleen during AA, the T lymphocyte reactivity to mitogens the Mycobacterial purified protein derivative (PPD) antigen was evaluated. […] The effect of various concentrations of 2ME2 in vitro on this proliferative response was evaluated. […] To further assess the effect of 2ME2 on lymphocyte responsiveness, lymph node cells harvested from rats treated with 2ME2 (30 mg/kg/d) from day 6-14 post-immunization were tested for proliferative response to PPD and the mitogens, Con A and PHA and compared to lymphocytes from vehicle-treated animals.

[7] = tested on: lymph node cells; assay: Ex vivo proliferation of lymph node cells from treated rats
Experimental: as §1

[8] = Steady-state PK in study SMP05-010; type: in vivo, Mouse (Balb/C)

estrogen receptor β, sequence (Q92731 whole entry): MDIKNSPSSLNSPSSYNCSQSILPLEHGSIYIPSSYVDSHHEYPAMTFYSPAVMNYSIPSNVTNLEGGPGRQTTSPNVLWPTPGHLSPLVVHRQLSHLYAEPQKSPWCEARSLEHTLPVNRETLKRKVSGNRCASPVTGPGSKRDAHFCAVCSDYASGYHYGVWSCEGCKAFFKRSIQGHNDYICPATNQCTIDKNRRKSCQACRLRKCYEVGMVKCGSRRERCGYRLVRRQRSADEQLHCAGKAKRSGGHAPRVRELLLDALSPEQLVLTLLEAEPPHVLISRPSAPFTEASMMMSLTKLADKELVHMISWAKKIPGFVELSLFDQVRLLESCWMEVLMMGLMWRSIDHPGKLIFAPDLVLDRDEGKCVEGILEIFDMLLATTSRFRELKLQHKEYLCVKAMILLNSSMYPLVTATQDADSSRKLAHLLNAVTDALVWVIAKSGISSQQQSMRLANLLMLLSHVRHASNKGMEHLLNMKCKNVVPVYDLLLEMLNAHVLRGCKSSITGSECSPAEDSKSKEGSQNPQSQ

COc1cc2c(cc1O)CC[C@@H]1[C@@H]2CC[C@]2(C)[C@@H](O)CC[C@@H]12 [2ME2, 2-methoxyestradiol]
affinity for estrogen receptor β [1]: low affinity | IC50, endothelial cell proliferation ([2]; optimal serum and endothelial cell growth supplements): approximately 0.5 μg/mL | concentration required for inhibition under optimal versus restricted growth conditions ([2]; optimal serum and growth supplements versus restricted): two-fold higher concentration | IC50 ([2]; read-out: IC50, endothelial cell proliferation, optimal serum and endothelial cell growth supplements): ~1.5 µM | concentration giving significant inhibition of endothelial cell proliferation ([2]; restricted serum and growth factor): 0.25 µg/mL | arthritic score ([3]; FIG. 1): decreases | synovial inflammation ([3]; FIG. 2, 100 mg/kg versus control): inhibits | periarticular inflammatory infiltrate and fibrosis ([3]; FIG. 3, 100 mg/kg versus control): inhibition | loss of proteoglycan in articular cartilage and induction of osteoclast activity ([3]; FIG. 4, 100 mg/kg versus control): prevents | severity of RA progression ([3]; FIG. 5): inhibit | percent inhibition of arthritic score ([3]; FIG. 7, 2ME2 in combination with methotrexate): unexpected increase | radiographic assessment ([3]; FIG. 8): radiographic evidence of 2ME2's anti-rheumatic effect | inhibition of clinical arthritic score, inflammation, cartilage degradation, bone resorption, and pannus formation ([3]; Study SMP04-040, 1, 10, 100 mg/kg/d PO, prevention (start 1 day after induction), Panzem NCD formulation): Dose-dependent | inhibition of clinical arthritic score, inflammation, cartilage degradation, bone resorption, and pannus formation ([3]; Study SMP05-009, 100 mg/kg/d, 100 mg/kg/week, 100 mg/kg twice a week PO, prevention): Regimen- | inhibition of clinical arthritic score, inflammation, cartilage degradation, bone resorption, and pannus formation ([3]; Study SMP05-010, 10, 25, 50, 75, 100 mg/kg/d PO, prevention): Dose-dependent | inhibition of clinical arthritic score upon combination of the two drugs ([3]; Study SMP05-046, 2ME2 10 or 100 mg/kg/d PO combined with MTX 0.1 or 1 mg/kg/d IP, prevention): Additive | pathology in the liver ([3]; Study SMP05-046, 2ME2 PO in combination with MTX IP): No pathology | pathology in the liver ([3]; Study SMP05-046, either drug alone (2ME2 10 or 100 mg/kg/d PO; MTX 0.1 or 1 mg/kg/d IP)): No pathology | accumulation of 51Cr-labeled PMNL in hind limb joints ([4]; 100 or 30 mg/kg/d initiated at day 6 (preclinical phase)): significantly decreased | immune cell migration to the joint ([4]; Dalhousie Study #1, 30, 100 mg/kg/d PO): Blocked | accumulation of 51Cr-labeled PMNL in joints ([4]; delayed treatment starting on day 10, tendency for a decrease): did not reach significance | PMNL migration to E. coli LPS ([5]; dermal sites, 2 h migration): did not affect | PMNL migration to complement chemotactic factor C5ades-arg ([5]; dermal sites, 2 h migration): did not affect | inhibition of PMNL migration to sites injected with rat TNF-α ([5]; either dose tested (30 or 100 mg/kg/d), starting at day 6 post-immunization): approximately 50% | inhibition of PMNL migration to sites injected with rat TNF-α ([5]; treatment delayed to day 10, tendency for inhibition): did not reach significance | IC50, lymphocyte response to PPD ([6]; 2ME2 added on day of culture initiation, 6 days): about 0.3 μg/mL | viability ([6]; all cultures): ≥ 85 % live cells | spontaneous proliferation in unstimulated cultures ([6]; in vitro): decreased | proliferation induced by the mitogens (Con A, PHA) ([6]; in vitro, compared with effect on PPD response): comparable inhibitory effect | effect on viability ([6]; lymph node cell cultures): no effect on viability | proliferative response to PPD (DNA incorporation) ([7]; lymphocytes from rats given 30 mg/kg/d day 6-14, compared to vehicle-treated): significantly reduced | proliferation induced by Con A or PHA ([7]; lymphocytes from rats given 30 mg/kg/d day 6-14, no 2ME2 added to cultures): no difference | Steady-state AUC0-24 ([8]; 25 mg/kg PO): 66 ng·h/mL | Steady-state AUC0-24 ([8]; 50 mg/kg PO): 117 ng·h/mL
